Values quoted from earlier work in paper PMC7395068, “The evolution of strategies to minimise the risk of human drug-induced liver injury (DILI) in drug discovery and development” (Archives of Toxicology, 2020).
Like-named read-outs stand apart in the source and are kept apart here.

Columns and labels:
[1] = tested on: isolated mouse liver mitochondria; conditions: In vitro Assay; ref Porceddu 2012; cited from earlier work
rBsep = conditions: cited from earlier work
PHH spheroids = conditions: cited from earlier work; for hLiMTs ATP <20 x Cmax: In vitro Assay, ref Vorrink 2018
[2] = tested on: THLE-Null and THLE-3A4 cells; conditions: In vitro Assay; ref Gustafsson 2014; cited from earlier work
[3] = tested on: primary human hepatocytes, NIH3T3 fibroblasts, BSEP, CYP3A4; conditions: In vitro Assay; ref Schadt 2015; cited from earlier work
[4] = tested on: HepG2 cells, primary human hepatocytes; conditions: In vitro Assay; ref Garside 2014; cited from earlier work
[5] = ref Chen 2016; cited from earlier work
HepG2 cells [6] = conditions: In vitro Assay; ref Persson 2013; cited from earlier work
[7] = cited from earlier work
HepG2 cells [8] = conditions: In vitro Assay; ref O'Brien 2006; cited from earlier work
human hepatocytes = conditions: In vitro Assay; ref Xu 2008; cited from earlier work
[9] = tested on: THLE or HepG2 cells, isolated mitochondria, BSEP; conditions: In vitro Assay; ref Aleo 2019; cited from earlier work
[10] = In vitro Assay, ref Dawson 2012

CCCN(CCC)C(=O)Cc1c(-c2ccc(Cl)cc2)nc2ccc(Cl)cn12 [alpidem]
in vitro data EC2<=1x Cmax [1]: +VE
in vitro data EC20<=2uM [1]: +VE
Inhibition of rBsep cutoff<1& cmax u>.2 (rBsep; [10]): +VE
Inhibition of rBsep cutoff<3 (rBsep; [10]): +VE
hLiMTs ATP <20 x Cmax (PHH spheroids): +VE (IC20 < 20 × Cmax.tot cut-off)
THLE-Null [2]: -VE
THLE-Null/3A4 [2]: -VE
Cellular toxicity (3T3 cells) [3]: -VE
Combined Assay [3]: -VE
GSH adduct HML [3]: +VE
Hepatocyte cellular toxicity [3]: +VE
MitoTox 3T3 [3]: -VE
TDI CYP3A4 [3]: -VE
hBSEP inhibition [3]: +VE
Cluster 1-6 +VE Assay [4]: +VE
DILI +VE (5-8), DILI -VE (-4) [5]: +VE
DILI severity category [5]: vMost-DILI-Concern
Cluser analysis (HepG2 cells [6]): +VE
Structural based (HCI) (HepG2 cells [6]): +VE
In vivo DILI ([7]; […]): +VE
In vivo DILI ([7]; ref Dawson 2012): +VE
In vivo DILI ([7]; ref Garside 2014): +VE
In vivo DILI ([7]; ref Gustafsson 2014): +VE
In vivo DILI ([7]; ref Persson 2013): +VE
In vivo DILI ([7]; ref Porceddu 2012): +VE
In vivo DILI ([7]; ref Schadt 2015): +VE
In vivo DILI ([7]; ref Vorrink 2018): +VE

CC(C)(Oc1ccc(CCNC(=O)c2ccc(Cl)cc2)cc1)C(=O)O [bezafibrate]
Structural based (HCI) (HepG2 cells [8]): +VE
Inhibition of rBsep cutoff<1& cmax u>.2 (rBsep; [10]): -VE
Inhibition of rBsep cutoff<3 (rBsep; [10]): -VE
hLiMTs ATP <20 x Cmax (PHH spheroids): -VE
THLE-Null [2]: -VE
THLE-Null/3A4 [2]: -VE
Cellular toxicity (3T3 cells) [3]: -VE
Combined Assay [3]: -VE
GSH adduct HML [3]: -VE
Hepatocyte cellular toxicity [3]: -VE
MitoTox 3T3 [3]: -VE
TDI CYP3A4 [3]: -VE
hBSEP inhibition [3]: -VE
Cluster 1-6 +VE Assay [4]: -VE
Structural based (HCI) (human hepatocytes): -VE
In vivo DILI ([7]; ref Dawson 2012): +VE
In vivo DILI ([7]; ref Garside 2014): +VE
In vivo DILI ([7]; ref Gustafsson 2014): +VE
In vivo DILI ([7]; ref O'Brien 2006): -VE
In vivo DILI ([7]; ref Schadt 2015): -VE
In vivo DILI ([7]; ref Vorrink 2018): -VE
In vivo DILI ([7]; ref Xu 2008): -VE

O=C(O)[C@H]1/C(=C/CO)O[C@@H]2CC(=O)N21 [clavulanate]
Inhibition of rBsep cutoff<1& cmax u>.2 (rBsep; [10]): -VE
Inhibition of rBsep cutoff<3 (rBsep; [10]): -VE
THLE-Null [2]: -VE
THLE-Null/3A4 [2]: -VE
Cellular toxicity (3T3 cells) [3]: -VE
Combined Assay [3]: -VE
GSH adduct HML [3]: -VE
Hepatocyte cellular toxicity [3]: -VE
MitoTox 3T3 [3]: -VE
TDI CYP3A4 [3]: -VE
hBSEP inhibition [3]: -VE
Cluster 1-6 +VE Assay [4]: -VE
In vivo DILI ([7]; […]): -VE
In vivo DILI ([7]; ref Dawson 2012): +VE
In vivo DILI ([7]; ref Garside 2014): +VE
In vivo DILI ([7]; ref Gustafsson 2014): +VE
In vivo DILI ([7]; ref Schadt 2015): +VE

NNc1nnc(NN)c2ccccc12 [dihydralazine]
Inhibition of rBsep cutoff<1& cmax u>.2 (rBsep; [10]): -VE
Inhibition of rBsep cutoff<3 (rBsep; [10]): -VE
hLiMTs ATP <20 x Cmax (PHH spheroids): +VE (IC20 < 20 × Cmax.tot cut-off)
THLE-Null [2]: -VE
THLE-Null/3A4 [2]: -VE
Cluster 1-6 +VE Assay [4]: +VE
In vivo DILI ([7]; ref Dawson 2012): +VE
In vivo DILI ([7]; ref Garside 2014): +VE
In vivo DILI ([7]; ref Gustafsson 2014): +VE
In vivo DILI ([7]; ref Vorrink 2018): +VE

CCN(CC)C(=S)SSC(=S)N(CC)CC [disulfiram]
in vitro data EC2<=1x Cmax [1]: +VE
hLiMTs ATP <20 x Cmax (PHH spheroids): +VE (IC20 < 20 × Cmax.tot cut-off)
THLE-Null [2]: +VE
Cluster 1-6 +VE Assay [4]: +VE

NCCc1ccc(O)c(O)c1 [dopamine]
Inhibition of rBsep cutoff<1& cmax u>.2 (rBsep; [10]): -VE
Inhibition of rBsep cutoff<3 (rBsep; [10]): -VE
hLiMTs ATP <20 x Cmax (PHH spheroids): -VE
THLE-Null [2]: -VE
THLE-Null/3A4 [2]: -VE
Cluster 1-6 +VE Assay [4]: -VE
DILI +VE (5-8), DILI -VE (-4) [5]: -VE
DILI severity category [5]: vNo-DILI-Concern
Structural based (HCI) (human hepatocytes): -VE
In vivo DILI ([7]; ref Dawson 2012): -VE
In vivo DILI ([7]; ref Garside 2014): -VE
In vivo DILI ([7]; ref Gustafsson 2014): -VE
In vivo DILI ([7]; ref Vorrink 2018): -VE
In vivo DILI ([7]; ref Xu 2008): -VE

O=C(OCC(O)CO)c1ccccc1Nc1ccnc2cc(Cl)ccc12 (centres unmarked) [glafenine]
Inhibition of rBsep cutoff<1& cmax u>.2 (rBsep; [10]): +VE
Inhibition of rBsep cutoff<3 (rBsep; [10]): +VE
hLiMTs ATP <20 x Cmax (PHH spheroids): -VE
THLE-Null [2]: -VE
THLE-Null/3A4 [2]: +VE
Cluster 1-6 +VE Assay [4]: +VE
DILI +VE (5-8), DILI -VE (-4) [5]: +VE
DILI severity category [5]: vMost-DILI-Concern
Structural based (HCI) (human hepatocytes): -VE
In vivo DILI ([7]; […]): +VE
In vivo DILI ([7]; ref Dawson 2012): +VE
In vivo DILI ([7]; ref Garside 2014): +VE
In vivo DILI ([7]; ref Gustafsson 2014): +VE
In vivo DILI ([7]; ref Vorrink 2018): +VE
In vivo DILI ([7]; ref Xu 2008): +VE

Cc1ccc(S(=O)(=O)NC(=O)NN2CC3CCCC3C2)cc1 (centres unmarked) [gliclazide]
Inhibition of rBsep cutoff<1& cmax u>.2 (rBsep; [10]): -VE
Inhibition of rBsep cutoff<3 (rBsep; [10]): -VE
THLE-Null [2]: -VE
THLE-Null/3A4 [2]: -VE
Cluster 1-6 +VE Assay [4]: -VE
Structural based (HCI) (human hepatocytes): -VE
In vivo DILI ([7]; ref Dawson 2012): +VE
In vivo DILI ([7]; ref Garside 2014): +VE
In vivo DILI ([7]; ref Gustafsson 2014): +VE
In vivo DILI ([7]; ref Xu 2008): -VE

CC(C)NNC(=O)c1ccncc1 [iproniazid, reference compound]
Inhibition of rBsep cutoff<1& cmax u>.2 (rBsep; [10]): -VE
Inhibition of rBsep cutoff<3 (rBsep; [10]): -VE
Partition Hybrid HRM Score [9]: -VE
Ro2 Hybrid HRM Score [9]: -VE
response of PHH spheroids at 5 × Cmax.tot (PHH spheroids; ATP, 14 days, not positive at higher concentrations, ref Vorrink et al. 2018): positive
hLiMTs ATP <20 x Cmax (PHH spheroids): -VE
THLE-Null [2]: -VE
THLE-Null/3A4 [2]: -VE
Cluster 1-6 +VE Assay [4]: -VE
DILI +VE (5-8), DILI -VE (-4) [5]: +VE
DILI severity category [5]: vMost-DILI-Concern
Cluser analysis (HepG2 cells [6]): -VE
Structural based (HCI) (HepG2 cells [6]): +VE
In vivo DILI ([7]; […]): +VE
In vivo DILI ([7]; ref Aleo 2019): +VE
In vivo DILI ([7]; ref Dawson 2012): +VE
In vivo DILI ([7]; ref Garside 2014): +VE
In vivo DILI ([7]; ref Gustafsson 2014): +VE
In vivo DILI ([7]; ref Persson 2013): +VE
In vivo DILI ([7]; ref Vorrink 2018): +VE

CN(C)CCN(Cc1cccs1)c1ccccn1 [methapyrilene]
Structural based (HCI) (HepG2 cells [8]): +VE
hLiMTs ATP <20 x Cmax (PHH spheroids): -VE
THLE-Null [2]: -VE
Cluster 1-6 +VE Assay [4]: -VE
In vivo DILI ([7]; ref Dawson 2012): -VE
In vivo DILI ([7]; ref Garside 2014): -VE
In vivo DILI ([7]; ref Gustafsson 2014): -VE
In vivo DILI ([7]; ref O'Brien 2006): +VE
In vivo DILI ([7]; ref Vorrink 2018): -VE

CNC(=O)Oc1ccc2c(c1)[C@]1(C)CCN(C)[C@@H]1N2C [physostigmine]
Inhibition of rBsep cutoff<3 (rBsep; [10]): -VE
Inhibition of rBsep cutoff<1& cmax u>.2 (rBsep): -VE
THLE-Null [2]: -VE
THLE-Null/3A4 [2]: -VE
Cluster 1-6 +VE Assay [4]: -VE
DILI +VE (5-8), DILI -VE (-4) [5]: -VE
DILI severity category [5]: vNo-DILI-Concern
In vivo DILI ([7]; ref Dawson 2012): -VE
In vivo DILI ([7]; ref Garside 2014): -VE
In vivo DILI ([7]; ref Gustafsson 2014): -VE
In vivo DILI ([7]; ref Vorrink 2018): -VE

CC(N/C(=N\C#N)Nc1ccncc1)C(C)(C)C (centres unmarked) [pinacidil]
Structural based (HCI) (HepG2 cells [8]): -VE
Inhibition of rBsep cutoff<1& cmax u>.2 (rBsep; [10]): -VE
Inhibition of rBsep cutoff<3 (rBsep; [10]): +VE
hLiMTs ATP <20 x Cmax (PHH spheroids): -VE
THLE-Null [2]: -VE
THLE-Null/3A4 [2]: -VE
Cluster 1-6 +VE Assay [4]: +VE
Structural based (HCI) (human hepatocytes): -VE
Cluser analysis (HepG2 cells [6]): -VE
Structural based (HCI) (HepG2 cells [6]): -VE
In vivo DILI ([7]; in vivo): -VE

CC(=O)Nc1ccc(OCC(O)CNC(C)C)cc1 (centres unmarked) [practolol]
Inhibition of rBsep cutoff<1& cmax u>.2 (rBsep; [10]): -VE
Inhibition of rBsep cutoff<3 (rBsep; [10]): -VE
hLiMTs ATP <20 x Cmax (PHH spheroids): -VE
THLE-Null [2]: -VE
Cluster 1-6 +VE Assay [4]: -VE

CCCN(CCC)S(=O)(=O)c1ccc(C(=O)O)cc1 [probenecid]
Inhibition of rBsep cutoff<1& cmax u>.2 (rBsep; [10]): -VE
Inhibition of rBsep cutoff<3 (rBsep; [10]): -VE
THLE-Null [2]: -VE
THLE-Null/3A4 [2]: -VE
Cellular toxicity (3T3 cells) [3]: -VE
Combined Assay [3]: -VE
GSH adduct HML [3]: -VE
Hepatocyte cellular toxicity [3]: -VE
MitoTox 3T3 [3]: -VE
TDI CYP3A4 [3]: -VE
hBSEP inhibition [3]: -VE
Cluster 1-6 +VE Assay [4]: +VE
DILI +VE (5-8), DILI -VE (-4) [5]: -VE
DILI severity category [5]: Ambiguous DILI-concern
In vivo DILI ([7]; ref Dawson 2012): +VE
In vivo DILI ([7]; ref Garside 2014): +VE
In vivo DILI ([7]; ref Gustafsson 2014): +VE
In vivo DILI ([7]; ref Schadt 2015): -VE

Cc1ncc(CO)c(CO)c1O [pyridoxine]
Structural based (HCI) (HepG2 cells [8]): +VE
Inhibition of rBsep cutoff<1& cmax u>.2 (rBsep; [10]): -VE
Inhibition of rBsep cutoff<3 (rBsep; [10]): -VE
hLiMTs ATP <20 x Cmax (PHH spheroids): -VE
THLE-Null [2]: -VE
THLE-Null/3A4 [2]: -VE
Cluster 1-6 +VE Assay [4]: -VE
DILI +VE (5-8), DILI -VE (-4) [5]: -VE
DILI severity category [5]: vNo-DILI-Concern
Structural based (HCI) (human hepatocytes): -VE
Cluser analysis (HepG2 cells [6]): -VE
Structural based (HCI) (HepG2 cells [6]): -VE
In vivo DILI ([7]; ref Dawson 2012): -VE
In vivo DILI ([7]; ref Garside 2014): -VE
In vivo DILI ([7]; ref Gustafsson 2014): -VE
In vivo DILI ([7]; ref O'Brien 2006): -VE
In vivo DILI ([7]; ref Persson 2013): -VE
In vivo DILI ([7]; ref Vorrink 2018): -VE
In vivo DILI ([7]; ref Xu 2008): -VE
